Test [1] has as its system rat model of repeated stress. The note with it: cited from earlier work.
In test [2] the test system is KET mouse model of psychosis or schizophrenia-like behavior. In words: Object recognition memory task after systemic (IP) SK channel activator. The following applies: for discrimination ratio score, test session (Mdn): CyPPA 15.0 mg/kg IP 30 min pre-sample. In kind it is in vivo, mouse (male C57BL/6J). As to the method: SK Drug Administration. To test the effect of the SK2 specific activator, CyPPA on long-term memory for objects, two KET groups and two SAL groups of male C57BL/6J mice were randomly assigned to receive either VEH or CyPPA (15.0 mg/kg) IP 30 min prior to the sample session of an object recognition memory task. Separate groups received CyPPA (7.5 mg/kg) IP or VEH 30 min prior to the sample session.
Arena Habituation. Mice were habituated to the arena prior to testing recognition memory. Thirty minutes prior to each arena habituation (AH) session, each mouse was restrained gently and momentarily, given a mock IP injection with a 26-gauge needle, and then placed into an empty polycarbonate cage. […] Afterwards, each mouse was returned to the polycarbonate cage and then returned to its home cage. Activity was recorded and automatically scored using Noldus Ethovision XT (version 7.0). Distance traveled was defined as the sum of recorded movement of the center point of the mouse in cm over the duration of the trial. Movement data from the AH sessions was used to match future treatment groups.
Sample Session. To examine the efficacy of activating SK channels on hippocampal long-term memory in the KET model of schizophrenia or psychosis-like cognitive deficits, an SK channel activator or vehicle (VEH, i.e., placebo) was administered to cohorts of saline (SAL) control mice or ketamine (KET)-exposed mice prior to the sample session of an object recognition task. Ten days after the final SAL or KET injection, mice received an IP injection of a SK channel activator or VEH, and then were placed individually in polycarbonate holding cages. Following a delay, the mouse was placed individually into the familiar arena for 10 min. Mice were permitted to freely explore two identical novel objects that were placed in opposite corners within the arena. […] The arena and objects were wiped down with 70% ethanol before each session to eliminate any odor cues that were present. Object exploration was defined as time (in s) that the mouse spent with its head oriented toward and within 2-3 cm of the object. The sample session ended after 10 min; at which time the mouse was returned to its home cage. Sample session behavior was video tracked via Ethovision XT and recordings were analyzed off-line to determine object exploration times for each mouse.
Test Session. Twenty-four hours following the sample session, mice were placed in a polycarbonate cage and then given a 10-min test session in the same arena as the sample session. Each mouse received a needle prick to simulate an IP injection before being placed in the polycarbonate holding cage for 30 min. For the test session, one of the previously encountered objects was replaced with a novel one (e.g., A, B, or C), as described above. To avoid place preference confounding behavioral responses, the objects were randomly replaced for the test session. The arena and objects were wiped down with 70% ethanol before each session to eliminate any odor cues that might affect behavioral responses during the test session.
Statistical Analysis. Object exploration was determined for each mouse based on the manual scoring of behavior from the recorded video files of the sample and test sessions. Scoring was done by experimenters who were blind to the treatment and group of the mice. Object memory was inferred from discrimination ratio scores, calculated for each mouse as the difference in time spent exploring the novel object minus the time spent exploring the familiar object, divided by the total time spent exploring both test objects (TNovel object−TFamiliar object/TNovel object+TFamiliar object). Discrimination ratio scores range from 1 to −1, with ratios greater than zero indicating preferential exploration of the novel object, and ratios less than zero indicating preferential exploration of the familiar object.

Test [3] has as its system KET mouse model of psychosis. In words: Object recognition memory task after intrahippocampal (CA1) microinfusion. Format: in vivo. The note with it: KET mice; CyPPA 1 μg/μl bilateral intra-CA1 pre-sample; test 24 h later.
The test system of test [4] is KET mouse model of psychosis. In words: Trace fear conditioning and tone test. Format: in vivo. The note with it: for discrimination ratio of % freezing (trace vs CS intervals) (Mdn): CyPPA 15.0 mg/kg IP 30 min before trace fear conditioning. As to the method: Systemic Administration of the SK2 Activator. Two groups of KET mice and two groups of SAL mice were randomly assigned to receive either VEH or CyPPA (15.0 mg/kg) IP 30 min prior to a trace fear conditioning session.
Trace fear conditioning was performed using a MED Associates Near-Infrared Video Fear Conditioning System (Georgia, VT) composed of four identical rectangular conditioning chambers (30.5 cm by 24.1 cm by 21 cm) constructed of brushed aluminum side walls and clear Plexiglas front, back and top walls. Each chamber was illuminated by an overhead white house light and an infrared light. An audio speaker attached to the right-side wall of each chamber delivered the tone stimuli. The chamber floor was constructed of parallel stainless-steel rods (36 rods, 3.2 mm dia, 7.9 mm apart) designed for mice, and connected to a scrambled shock generator. Each conditioning chamber was housed inside a larger sound-attenuating cabinet with a ventilation fan in the right-side wall used to provide background noise. A near-infrared FireWire video camera, mounted on the left front door of each noise-attenuating cabinet, was used to acquire mouse behavior. Before each trial, the chamber floors were cleaned thoroughly with a 70% ethanol solution, then with 1% LiquiNox (White Plains, New York) to reduce olfactory cues.
Freezing responses were recorded and automatically scored during the conditioning session to assess the strength of fear memory. The automatic software program operationally defined freezing as the duration of time, greater than 0.6 s, during which fewer than 20 pixels of each video frame were detected to have changed. […] All final freezing responses were hand scored to ensure accuracy.
Trace Fear Conditioning Session. Mice received a systemic injection of CyPPA or VEH and then were placed individually into empty holding cages. Thirty min later, mice were placed individually into a distinct conditioning chamber with an odor cue. […] (FIG. 4A). Mice were removed from the chamber 60 s. after the presentation of the 8th US.
Trace Fear Memory Tone Test. To assess retention of trace fear memory after a 24-hour delay, mice received a mock IP injection before being placed in the polycarbonate cage. After 30 min, mice were placed into modified conditioning chambers and after a 60 s. delay, were presented with the identical tone CS as in the conditioning session. […] Mice were removed 30 s. after termination of the last CS. The context of chamber was modified before the tone test by installing an inverted V-shaped Plexiglas insert to change the geometry of the side walls and ceiling, a floor shield, 1% acetic acid, and lighting filter.
Statistical Analysis. […] To examine whether KET differentially influenced the perception of the aversive foot shock stimulus, an activity burst ratio was computed for each mouse by dividing the motion score for the first shock interval, 1 s, +1 s. post shock by the motion score for a 2-s interval from the initial 60 s. of the conditioning session (Mean shock/mean no shock). A two-factor (group, treatment) ANOVA, or one-way if not normally distributed, was conducted to analyze treatment differences in the mean activity burst.
Trace fear conditioning involves the imposition of a temporal gap between the termination of the CS and the onset of the aversive US stimulus. […] The strength and accuracy of this temporally guided fear memory can then be assessed during a test session, often presented 24 hours after trace conditioning. […]

Entries after “also recorded” stand apart in the source; their conditions may differ.

As to `CCn1c(=O)[nH]c2ccccc21` [1-EBIO], the “fear memory impairments” value in test [1] was “alleviated fear memory impairments”.

On to `Cc1cc(NC2CCCCC2)nc(-n2nc(C)cc2C)n1` [CyPPA], for which the “discrimination ratio, test session (Mdn)” value in test [2] (KET mice, CyPPA 7.5 mg/kg IP 30 min pre-sample, test 24 h later) was determined as 0.079; in test [3], 0.398. In addition, the “object recognition memory vs KET mice given VEH” value in test [2] (KET mice, CyPPA 7.5 mg/kg IP pre-sample, test 24 h later) is listed as “no rescue of KET-induced impaired object memory”; in test [2] (KET mice, CyPPA 15.0 mg/kg IP pre-sample, test 24 h later), “rescued object recognition memory; also recorded: performed significantly better than VEH-treated KET mice; also recorded: significantly better object recognition memory performance”. Moreover, the “discrimination ratio score, test session (Mdn)” value in test [2] (KET mice, test 24 h later) stood at 0.191; in test [2] (SAL control mice, test 24 h later), 0.381. Besides, the “object memory vs SAL mice given VEH” value in test [2] (SAL control mice, CyPPA 15.0 mg/kg IP pre-sample) was “impaired object memory; also recorded: impaired the encoding and or consolidation of object memory”. Besides, the “fear memory impairments” value in test [1] is listed as “alleviated fear memory impairments”. In addition, the “discrimination ratio score, test session (M)” value in test [3] is given as 0.354. For the same molecule, in test [3], the “object recognition memory vs KET/VEH” value is listed as “improved object recognition memory; also recorded: partial, albeit significant, rescue of object recognition memory”. For the same molecule, the “performance during the tone test (retrieval) as stated in the Conclusions” value in test [4] (KET mice given CyPPA vs KET mice given VEH) was “performed equivalently to KET mice given VEH”. Moreover, the entries for the “discrimination ratio of % freezing (trace vs CS intervals) (Mdn)” value in test [4] (KET mice) and in test [4] (SAL mice) were 0.21 and 0.13, respectively. Also, the “temporal memory / attention in trace fear conditioning vs KET mice given VEH” value in test [4] (KET mice, CyPPA 15.0 mg/kg IP 30 min pre-conditioning) is “rescue of the attention or learning deficit; also recorded: significantly better than that of VEH-treated KET mice; also recorded: rescued temporal memory and attention”. Moreover, in test [4] (SAL mice, CyPPA 15.0 mg/kg IP pre-conditioning), the “conditioned freezing response vs SAL mice given VEH” value was “impaired acquisition of the conditioned freezing response; also recorded: exhibited impaired freezing compared to SAL mice given VEH”.

The values above are taken from US20250120971A1, “NOVEL DRUG TREATMENT OF COGNITIVE IMPAIRMENTS ASSOCIATED WITH SCHIZOPHRENIA” (FLORIDA ATLANTIC UNIVERSITY BOARD OF TRUSTEES, priority 2021, published 2025).
